Assay results: patent US20240100183A1, “COMPOSITIONS COMPRISING MOLECULES FOR CYSTIC FIBROSIS TREATMENT” (UNiversity of Iowa Research Foundation, priority 2020, published 2024)
In brackets after ≈: the same amount, converted by molar mass. Several values for one entry are separate records, joined by “and”; a condition that tells them apart may be missing. Equal values may be shown once. Read-outs that look alike come from different tables or passages of the source.

Columns and labels:
[1] = Phase solubility of ivacaftor in cyclodextrin solutions; format: physicochemical; conditions: for solubility at 3 days: aqueous with cosolvent or surfactant or cyclodextrin, thermodynamic from solid
Experimental: Excess amounts of powdered ivacaftor were suspended in different concentrations of different types of CD's (up to […] in the case of βCD, and up to […] in the case of αCD, γCD, and HPβCD). The suspensions were shaken at 3000 rpm at room temperature for 3 days. Then, samples were collected and filtered, and the concentration of ivacaftor was determined using HPLC, as described below. An Agilent HPLC workstation series 1100 (Agilent Technologies, Santa Clara, CA) was used for the analysis. The column used was Waters Symmetry C18 5 μm (4.6×150 mm), and the mobile phase consisted of 6:4 acetonitrile: water with 0.1% v/v trifluoroacetic acid (TFA) at a flow rate of 1 ml/min (at 25±2° C.). Detection was carried out using an Agilent Diode array detector (DAD) at 309 nm.

[2] = Ivacaftor solubility in the release medium; format: physicochemical; conditions: release medium (polysorbate 80 in DPBS), aqueous with cosolvent or surfactant or cyclodextrin; 0.4% v/v polysorbate 80 in 1×DPBS, 37° C.
[3] = cited from earlier work; for aqueous (water) solubility: room temperature
[4] = oral 150 mg twice daily; cited from earlier work

solubility in βCD relative to aqueous solubility ([1]; 10 μM βCD): about 24 times
solubility in γCD relative to aqueous solubility ([1]; 25 μM γCD): about 10 times
solubility in HPβCD relative to aqueous solubility ([1]; 50 μM HPβCD): about 1000 times
solubility in HPβCD relative to maximum βCD concentration ([1]; 50 μM HPβCD vs 10 μM βCD): about 40 times
solubility in HPβCD relative to αCD and γCD ([1]; 50 μM of each CD): 100-150 times
solubility at 3 days ([1]; HPβCD solution, 50 μM HPβCD, room temperature, 3 days shaking, read-out: ivacaftor solubility in HPβCD solution): 50 µg/mL (≈ 127 µM)
solubility in βCD relative to αCD and γCD ([1]; same concentration (10 μM)): 5-6 times and 5-8 times
solubility at 3 days ([1]; βCD solution, 10 μM βCD, read-out: ivacaftor solubility in βCD solution): 1.2 µg/mL (≈ 3.06 µM)
solubility at 3 days ([1]; γCD solution, 25 μM γCD, read-out: ivacaftor solubility in γCD solution): 0.5 µg/mL (≈ 1.27 µM)
solubility [2]: 272 µg/mL (≈ 692 µM)
SMILES: CC(C)(C)c1cc(C(C)(C)C)c(NC(=O)c2c[nH]c3ccccc3c2=O)cc1O [Ivacaftor, N-(2,4-Di-tert-butyl-5-hydroxyphenyl)-4-oxo-1,4-dihydroquinoline-3-carboxamide]
log P [3]: 3.13
log P ([3]; listed as IVA): 3.3
aqueous (water) solubility [3]: about 0.05 μg/ml
aqueous (water) solubility ([3]; listed as IVA): < 0.05 µg/mL
half-life [4]: 9 to 12 h
